Data as given in US8415300B2, “Sustained release of microcrystalline peptide suspensions” (Medical Research Council Technology, priority 2001, dated 2013).
Counter-ions that a name gives are not always drawn. Blank lines part the entries; values can stand above or below the compound they belong to. Starred links: 1 amine or outer side, 2 acyl side, 3 side chain; linkers in the order of their positions; H or OH if unused. Positions of bridges follow the written chain, without caps; N, C: chain ends. Non-standard residues stand in square brackets, D forms with d. Residues, ends and D or L forms follow the SMILES beside them. Groups on a side chain read outwards from the residue. No end group written: not given here. *: point of attachment. dTrp(2-Me) = Cc1[nH]c2ccccc2c1C[C@@H](N)C(=O)O; Trp(2-Me) = Cc1[nH]c2ccccc2c1C[C@H](N)C(=O)O; dPhe(4-Cl) = N[C@H](Cc1ccc(Cl)cc1)C(=O)O; d2Nal = N[C@H](Cc1ccc2ccccc2c1)C(=O)O; d(hCit) = NC(=O)NCCCC[C@@H](N)C(=O)O; Lys(iPr) = CC(C)NCCCC[C@H](N)C(=O)O; Ethylenediamine = C(CN[*:2])N[*:1]; Hyp = O=C(O)[C@@H]1C[C@@H](O)CN1; dCit = NC(=O)NCCC[C@@H](N)C(=O)O; d3Pal = N[C@H](Cc1cccnc1)C(=O)O; Phg = N[C@H](C(=O)O)c1ccccc1; CO = O=C([*:1])[*:2]; Bn = c1ccc(C*)cc1

How the values were obtained:
[1] = Physical form (gel or flowing milky microcrystalline suspension) of the peptide salt mixed with aqueous medium or counter-ion acid; assay type: physicochemical
Protocol: Such behavior is not elicited by other salts such as the acetate, which result in the expected, but unwanted, formation of gels with poor bioavailability in vivo.
(§1) 200 μL of 5% mannitol were added to approximately 15 mg of the LHRH antagonist Teverelix trifluoroacetate. […] The suspension is made of microcrystals of about 10 μm length. Microcrystals may clump together to form urchin like structures. The suspension was injected in rats (1 mg) sub-cutaneously and provided the pharmacodynamic effect of testosterone suppression for more than 45 days (FIG. 1).
200 μL of water were added to approximately 15 mg of the LHRH antagonist Teverelix trifluoroacetate.
200 μL of water were added to approximately 15 mg of the LHRH antagonist Teverelix acetate.
In another study, 100 μL of TFA of various concentrations were added to 7.5 mg of the LHRH antagonist Teverelix acetate, with the TFA/Teverelix molar ratio ranging from 1 to 3.
200 μL of 150 mM TFA were added to amounts of the LHRH antagonist Teverelix acetate ranging from 5 to 30 mg (concentration ranging from 25 to 150 mg/mL).
The suspension was freeze-dried overnight.
(§2) The suspension was freeze-dried overnight. […] These suspensions were stable for at least 3 days at room temperature.
The suspension is made of microcrystals of about […] length. Microcrystals may assemble together to form urchin like structures. The suspension was freeze-dried overnight. […]

[2] = Pharmacokinetic analysis: sustained release of the peptide after injection of the suspension; assay type: in vivo, rats
Protocol: FIG. 2 is a graph which illustrates the sustained release of the peptide Teverelix for several weeks in rats injected with the suspension of Teverelix trifluoroacetate according to the invention.
as §1

[3] = Stability of reconstituted suspensions at room temperature; assay type: physicochemical; details: reconstituted with water and 0.2 M acetate buffer pH 4.0
Description: as §2

[4] = 100 μL of 150 mM trifluoroacetic acid solution added to 7.5 mg

Compound: D-Nal-c[Cys-Tyr-D-Trp-Lys-Val-Cys]-Trp(2Me)-NH2
physical form after mixing [1, 4]: Free flowing suspensions

Compound: [dF]CY[dW]KVCW-NH2 (disulfide 2-7)
physical form after mixing [1, 4]: Free flowing suspensions

Compound: [dF]CY[dW]KVC[Trp(2-Me)]-NH2 (disulfide 2-7)
physical form after mixing [1, 4]: Free flowing suspensions

Compound: [dTrp(2-Me)]CF[dW]KTC[Trp(2-Me)]-NH2 (disulfide 2-7)
physical form after mixing [1, 4]: Free flowing suspensions

The next lines start with the values.

physical form after mixing ([1]; 100 μL of 200 mM trifluoroacetic acid solution added to 2.5 mg): milky free flowing suspension
Compound: CC(=O)N[C@H](Cc1ccc2ccccc2c1)C(=O)N[C@H](Cc1ccc(Cl)cc1)C(=O)N[C@H](Cc1cccnc1)C(=O)N[C@@H](CO)C(=O)N[C@@H](Cc1ccc(O)cc1)C(=O)N[C@H](CCCNC(N)=O)C(=O)N[C@@H](CC(C)C)C(=O)N[C@@H](CCCNC(=N)N)C(=O)N1CCC[C@H]1C(=O)N[C@H](C)C(N)=O [Cetrorelix acetate, reference compound] (Ac-[d2Nal][dPhe(4-Cl)][d3Pal]SY[dCit]LRP[dA]-NH2)

physical form after mixing ([1]; 100 μL of 5% mannitol-water solution added to approximately 5 mg): milky free flowing suspension
Compound: NCCCC[C@@H]1NC(=O)[C@@H](Cc2c[nH]c3ccccc23)NC(=O)[C@H](c2ccccc2)NC(=O)[C@@H]2C[C@@H](OC(=O)NCCN)CN2C(=O)[C@H](Cc2ccccc2)NC(=O)[C@H](Cc2ccc(OCc3ccccc3)cc2)NC1=O [SOM 230, ETD-carboxy-c[Hyp-Phg-D-Trp-Lys-Tyr(Bzl)-Phe], reference compound] (cyclo([Hyp]([CO-Ethylenediamine])[Phg][dW]KY(Bn)F))

sustained release of the peptide, duration ([2]; rats, 1 mg sub-cutaneously, suspension in 5% mannitol): several weeks
Compound: CC(=O)N[C@H](Cc1ccc2ccccc2c1)C(=O)N[C@H](Cc1ccc(Cl)cc1)C(=O)N[C@H](Cc1cccnc1)C(=O)N[C@@H](CO)C(=O)N[C@@H](Cc1ccc(O)cc1)C(=O)N[C@H](CCCCNC(N)=O)C(=O)N[C@@H](CC(C)C)C(=O)N[C@@H](CCCCNC(C)C)C(=O)N1CCC[C@H]1C(=O)N[C@H](C)C(N)=O [Teverelix trifluoroacetate, Ac-D-Nal-D-pClPhe-D-Pal-Ser-Tyr-D-Hci-Leu-Lys(iPr)-Pro-D-Ala-NH2] (Ac-[d2Nal][dPhe(4-Cl)][d3Pal]SY[d(hCit)]L[Lys(iPr)]P[dA]-NH2)

stability of the reconstituted suspensions [3]: at least 3 days
physical form after mixing ([1]; 150 mM TFA (3 mols/mol): 200 μL to approximately 15 mg (Example 6) or 1 mL to approximately 75 mg (Example 7)): flowing milky suspension
physical form after freeze-drying and reconstitution ([1]; 150 mM TFA suspension freeze-dried overnight, 1 mL of water and 0.2 M acetate buffer pH 4.0 added): flowing milky suspension
physical form after freeze-drying and reconstitution ([1]; 150 mM TFA suspension freeze-dried overnight, 200 μL of water or 5% mannitol added): flowing milky suspension
physical form after addition of TFA to the gel ([1]; 20 μL of TFA (3 mols/mol) added to gel of approximately 15 mg in 200 μL water): fluid, flowing milky pearly suspension
physical form after mixing ([1]; 100 μL of 150 mM trifluoromethane sulfonic acid solution added to 7.5 mg): free flowing milky suspension
physical form after mixing ([1]; 100 μL of 250 mM H2SO4 added to 7.5 mg (5 mols/mol), after several hours): flowing milky suspension
TFA/Teverelix molar ratio at which a flowing milky suspension was obtained ([1]; 100 μL of TFA of various concentrations added to 7.5 mg, molar ratio ranging from 1 to 3, gels at other ratios): 1.6
physical form after mixing ([1]; 200 μL of 75 mM TFA with approximately 15 mg (1.5 mol/mol)): transparent gel
physical form after mixing ([1]; 200 μL of 100 mM TFA added to approximately 15 mg (2 mols/mol)): flowing milky suspension
concentration at which a flowing milky suspension was obtained ([1]; 200 μL of 150 mM TFA added to 5 to 30 mg (25 to 150 mg/mL)): up to 100 mg/mL
physical form after freeze-drying and reconstitution ([1]; H2SO4 suspension freeze-dried overnight, 100 μl of water or 5% mannitol added): flowing milky suspension
physical form after mixing ([1]; approximately 15 mg in 200 μL of water, vortex one minute): transparent gel
microcrystal length ([1]; suspension from 100 μL of 250 mM H2SO4 and 7.5 mg): about 100 μm
Compound: Ac-D-Nal-D-pClPhe-D-Pal-Ser-Tyr-D-Hci-Leu-Lys(iPr)-Pro-D-Ala-NH2 [Teverelix acetate]

physical form after mixing ([1]; 100 μL of 150 mM benzenesulfonic acid added to 7.5 mg): free flowing suspension
Compound: Ac-D-Nal-D-pClPhe-D-Pal-Ser-Tyr-D-Hci-Leu-Lys(iPr)-Pro-D-Ala-NH2 [Teverelix hydrochloride]

release of the active principle, duration ([2]; highly concentrated aqueous suspension of TFA or sulfate salt injected parenterally, general statement (FIGS. 1 and 2)): several weeks
physical form of highly concentrated aqueous suspension ([1]; as trifluoroacetate (TFA) or sulfate salt, general statement): microcrystalline milky suspension
Compound: Ac-D-Nal-D-pClPhe-D-Pal-Ser-Tyr-D-Hci-Leu-Lys(iPr)-Pro-D-Ala-NH2 [Teverelix]
